Where two headings read alike, the source gives them in different places.
Columns and labels:
[1] = target: nAChR formed by the α7 subunit (3H-α-bungarotoxin binding, cerebral cortex homogenate) (Rattus norvegicus, UniProt Q05941); assay: biochemical
[2] = target: nAChRs comprised of α4 and β2 subunits (3H-cytisine binding, cerebral cortex homogenate) (Rattus norvegicus, UniProt P09483+P12390); assay: In vitro inhibition of 3H-cytisine binding
Experimental: In Vitro Inhibition of 3H-cytisine Binding
The predominant subtype with high affinity for nicotine is comprised of α4 and β2 subunits. nAChRs of the latter type can selectively be labelled by the nicotine agonist ^3H-cytisine.
Tissue Preparation: Preparations are performed at 0-4° C. unless otherwise indicated. […] The homogenate is centrifuged at 27,000×g for 10 min. The supernatant is discarded and the pellet is resuspended in fresh buffer and centrifuged a second time. The final pellet is resuspended in fresh buffer (35 ml per g of original tissue) and used for binding assays.
Assay: Aliquots of 500 μl homogenate are added to 25 μl of test solution and 25 μl of ^3H-cytisine (1 nM, final concentration), mixed and incubated for 90 min at 2° C. Non-specific binding is determined using (−)-nicotine (100 μM, final concentration). After incubation the samples are added 5 ml of ice-cold buffer and poured directly onto Whatman GF/C glass fibre filters under suction and immediately washed with 2×5 ml ice-cold buffer. The amount of radioactivity on the filters is determined by conventional liquid scintillation counting. Specific binding is total binding minus non-specific binding.
Results are given as IC50 values; the concentration (μM) that inhibit binding of the radioactive ligand by 50 %.

[3] = background statement; cited from earlier work
[4] = rat cerebral cortex, 1 nM 3H-cytisine, 90 min at 2° C., read-out: 3H-cytisine IC50

Sequence of nAChRs comprised of α4 and β2 subunits (3H-cytisine binding, cerebral cortex homogenate) (P09483 31-630): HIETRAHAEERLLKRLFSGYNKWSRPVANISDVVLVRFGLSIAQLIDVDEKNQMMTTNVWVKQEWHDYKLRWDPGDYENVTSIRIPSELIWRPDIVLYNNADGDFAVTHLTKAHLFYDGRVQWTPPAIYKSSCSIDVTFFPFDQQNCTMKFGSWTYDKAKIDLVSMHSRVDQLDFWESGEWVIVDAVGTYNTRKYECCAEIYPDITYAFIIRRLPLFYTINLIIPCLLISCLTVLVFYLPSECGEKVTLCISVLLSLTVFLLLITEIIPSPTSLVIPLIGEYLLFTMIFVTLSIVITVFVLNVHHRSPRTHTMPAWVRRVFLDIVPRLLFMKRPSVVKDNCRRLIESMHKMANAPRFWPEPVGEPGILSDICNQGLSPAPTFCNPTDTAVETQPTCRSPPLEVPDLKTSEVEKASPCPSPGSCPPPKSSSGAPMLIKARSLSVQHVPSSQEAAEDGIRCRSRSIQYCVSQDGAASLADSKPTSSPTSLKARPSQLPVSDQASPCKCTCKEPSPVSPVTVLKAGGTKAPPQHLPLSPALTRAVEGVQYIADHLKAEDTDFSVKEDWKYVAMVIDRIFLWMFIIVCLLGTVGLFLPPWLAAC
Sequence of nAChRs comprised of α4 and β2 subunits (3H-cytisine binding, cerebral cortex homogenate) (P12390 25-500): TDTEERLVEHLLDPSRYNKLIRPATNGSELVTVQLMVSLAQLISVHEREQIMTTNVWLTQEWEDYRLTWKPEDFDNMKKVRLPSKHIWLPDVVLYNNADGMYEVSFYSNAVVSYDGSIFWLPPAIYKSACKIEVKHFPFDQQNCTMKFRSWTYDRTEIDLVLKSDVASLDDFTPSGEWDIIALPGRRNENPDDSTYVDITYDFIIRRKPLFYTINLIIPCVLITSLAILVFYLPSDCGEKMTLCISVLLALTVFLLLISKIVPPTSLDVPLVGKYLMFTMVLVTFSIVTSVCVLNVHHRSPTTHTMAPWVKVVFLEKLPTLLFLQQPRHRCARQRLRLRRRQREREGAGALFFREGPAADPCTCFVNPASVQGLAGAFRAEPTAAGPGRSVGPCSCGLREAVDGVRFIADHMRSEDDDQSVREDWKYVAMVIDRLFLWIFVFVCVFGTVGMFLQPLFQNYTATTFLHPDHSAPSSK
Sequence of nAChR formed by the α7 subunit (3H-α-bungarotoxin binding, cerebral cortex homogenate) (Q05941 23-502): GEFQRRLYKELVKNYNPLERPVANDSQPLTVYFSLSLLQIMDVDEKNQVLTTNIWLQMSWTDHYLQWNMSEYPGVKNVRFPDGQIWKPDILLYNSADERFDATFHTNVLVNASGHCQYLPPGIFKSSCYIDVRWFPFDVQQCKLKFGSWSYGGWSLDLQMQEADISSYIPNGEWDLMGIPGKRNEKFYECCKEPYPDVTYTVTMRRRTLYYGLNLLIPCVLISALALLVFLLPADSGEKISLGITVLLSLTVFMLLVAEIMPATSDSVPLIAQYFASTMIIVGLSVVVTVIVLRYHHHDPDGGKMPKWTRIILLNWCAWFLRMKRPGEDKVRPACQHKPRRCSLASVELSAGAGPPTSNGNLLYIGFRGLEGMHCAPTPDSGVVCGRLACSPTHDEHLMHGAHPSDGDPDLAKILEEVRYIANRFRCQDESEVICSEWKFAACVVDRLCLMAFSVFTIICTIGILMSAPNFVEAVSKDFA

In the case of CC(C)(C)c1ccc2c(c1)OC1(CN3CCC1CC3)O2 (racemic) [Compound 3a, (±)-6-t.-Butyl-spiro[benzo-1,3-dioxolane-2,3′-quinuclidine]], the IC50 [1] is reported as 2.3 µM, the melting point is reported as 184 to 186 °C and the IC50 [2, 4] is reported as over 10 µM.

Compound Cc1ccc2c(c1)OC1(CN3CCC1CC3)O2 (racemic) [Compound 2a, (±)-6-methyl-spiro[benzo-1,3-dioxolane-2,3′-quinuclidine]] has an IC50 [1] of 0.18 µM, a melting point of 173 to 175 °C and an IC50 [2, 4] of 23 µM.

In the case of Clc1ccc(C2CC3CCC2N3)cn1 (stereo not shown) [Epibatidine], the “analgesic potency relative to morphine” value [3] is given as ~500 times that of morphine.

Compound c1ccc2c(c1)OC1(CN3CCC1CC3)O2 [Compound 1a, Spiro[benzo-1,3-dioxolane-2,3-quinuclidine]] has an IC50 [1] of 0.19 µM, a melting point of 123 to 125 °C and an IC50 [2] of 30 µM.
